The record followed here is the supplement of paper PMC11061612.

Experiment in all cases: Bliss excess, mean over the matrix (fraction); higher = more synergy
Test [1] relates to Detroit562 (Head and Neck Carcinoma). The method in brief:
(§1)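 Bliss excess equals the observed combination effect minus the expected value EA + EB − EA·EB, where EA and EB are the effects of each agent alone. Combination Emax is the second-highest inhibition within the matrix. Inhibition was scaled from CellTiter-Glo 2.0 luminescence, with 0 set by vehicle wells and 1 by blank wells, after 72 hours of two-drug dosing of cells plated in 1536-well plates.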

The test system of test [2] is NCI-H1568 (Lung Adenocarcinoma). The method in brief: as §1
The test system of test [3] is MHH-CALL-2 (B-Lymphoblastic Leukemia). The method, boiled down: as §1
In test [4] the test system is SW1710 (Bladder Carcinoma). The method in brief:
as §1

The test system of test [5] is YAPC (Pancreatic Carcinoma). The method, boiled down: as §1
In test [6] the test system is TGBC1TKB (Biliary Tract Carcinoma). The method in brief:
as §1

Test [7] concerns LOXIMVI (Melanoma). The method, boiled down: as §1
Test [8] has as its system NUGC-4 (Gastric Carcinoma). The method, boiled down: as §1
Test [9] relates to FTC-133 (Thyroid Gland Carcinoma). The method, boiled down: as §1
Test [10] relates to KYAE-1 (Esophageal Adenocarcinoma). The method in brief: as §1
In test [11] the test system is OE21 (Esophageal Squamous Cell Carcinoma). The method in brief: as §1
The test system of test [12] is KS-1 (Glioblastoma). The method in brief:
as §1

Test [13] relates to OVCAR-5 (Ovarian Carcinoma). The method in brief:
as §1

The test system of test [14] is SNU-16 (Gastric Carcinoma). The method in brief:
as §1

In test [15] the test system is CAL-33 (Oral Cavity Carcinoma). The method, boiled down:
as §1

Test [16] has as its system WSU-NHL (B-Cell Non-Hodgkin's Lymphoma). The method, boiled down:
as §1

Test [17] relates to ESS-1 (Other Solid Carcinomas). The method, boiled down: as §1
Test [18] deals with KMRC-20 (Kidney Carcinoma). The method, boiled down: as §1
Test [19] has as its system SAS (Oral Cavity Carcinoma). The method in brief:
as §1

The test system of test [20] is BFTC-909 (Kidney Carcinoma). The method, boiled down:
as §1

The structures appear in SMILES notation.

For the molecule `CC(=O)c1c(C)c2cnc(Nc3ccc(N4CCNCC4)cn3)nc2n(C2CCCC2)c1=O` [Palbociclib] + CC1(C)CCC(CN2CCN(c3ccc(C(=O)NS(=O)(=O)c4ccc(NCC5CCOCC5)c([N+](=O)[O-])c4)c(Oc4cnc5[nH]ccc5c4)c3)CC2)=C(c2ccc(Cl)cc2)C1 [Venetoclax] (first compound max 10 µM, 7x7, partner max 1 µM), the Bliss excess in test [1] was 0.0008; in test [2], -0.0506; in [3], -0.032; in [4], 0.0152; in test [5], -0.0109; in test [6], -0.0385. The Bliss excess is -0.0045 in [7]; -0.0246 in test [8]; -0.0481 in test [9]; -0.023 in test [10]; 0.0309 in test [11]; -0.0211 in [12]. The Bliss excess is -0.0018 in test [13]; -0.0161 in [14]; -0.022 in [15]; -0.0137 in test [16]; -0.0303 in [17]; -0.03 in [18]. Moreover, the Bliss excess in test [19] amounted to 0.014; in [20], 0.0244.

Take `CC(=O)c1c(C)c2cnc(Nc3ccc(N4CCNCC4)cn3)nc2n(C2CCCC2)c1=O` [Palbociclib] + Cc1c2c(nn1C)CSCc1cc(n(C)n1)CSc1cc(c3ccccc3c1)OCCCc1c(C(=O)O)n(C)c3c-2c(Cl)ccc13 [AZD5991] (first compound max 10 µM, 7x7, partner max 1 µM): the Bliss excess in test [1] is -0.0131; in test [2], -0.0149; in [3], -0.0451; in test [4], -0.0405; in test [5], -0.0037; in test [6] it was -0.0082. Also, the Bliss excess is -0.0325 in test [7]; -0.0486 in test [8]; -0.0515 in [9]; 0.0035 in [10]; -0.0088 in test [11]; -0.0556 in test [12]. Besides, the Bliss excess is -0.0406 in [13]; -0.0089 in test [14]; 0.016 in [15]; -0.0269 in [16]; -0.0067 in test [17]; -0.0782 in test [18]. The figures for the Bliss excess in test [19] and in test [20] were -0.0318 and 0.0029, respectively.

In the case of `CC(=O)c1c(C)c2cnc(Nc3ccc(N4CCNCC4)cn3)nc2n(C2CCCC2)c1=O` [Palbociclib] + Cn1cnc2c(F)c(Nc3ccc(Br)cc3Cl)c(C(=O)NOCCO)cc21 [Selumetinib] (first compound max 10 µM, 7x7, partner max 10 µM), the Bliss excess in [1] was -0.0041; in [2], -0.109; in test [3], -0.0407; in [4], 0.0054; in test [5] it was 0.0156; in test [6] it was -0.0251. In addition, the Bliss excess in test [7] was 0.0724; in test [8], -0.0292; in [9], -0.0403; in test [10] it was -0.0125; in [11], 0.0877; in [12], -0.0012. Also, the Bliss excess is -0.0041 in [13]; 0.0339 in [14]; 0.0345 in test [15]; 0.107 in [16]; -0.0097 in test [17]; -0.0534 in test [18]. In addition, the Bliss excess was -0.0084 in [19] and 0.0424 in test [20].

For the molecule `COc1cccc(OCCCN)c1-c1cc(Nc2cnc(C#N)cn2)n[nH]1` [Prexasertib] + CCc1c2c(nc3ccc(O)cc13)-c1cc3c(c(=O)n1C2)COC(=O)[C@]3(O)CC [SN-38] (first compound max 1 µM, 7x7, partner max 0.3 µM), the Bliss excess in test [1] is 0.055; in [2], 0.0165; in test [3], 0.0227; in test [4] it was 0.0504; in test [5], -0.0776; in [6], 0.0365. In addition, the Bliss excess is -0.0455 in [7]; -0.0568 in test [8]; -0.0278 in [9]; 0.102 in test [10]; -0.0509 in test [11]; -0.0848 in test [12]. Also, the Bliss excess in [13] is -0.0162; in test [14], 0.0333; in test [15], -0.0329; in test [16], -0.0073; in [17] it was -0.0183; in test [18] it was -0.0215. The Bliss excess in [19] was -0.0246; in [20], 0.0075.

Turning to `Cn1cnc2c(F)c(Nc3ccc(Br)cc3Cl)c(C(=O)NOCCO)cc21` [Selumetinib] + C=CCn1c(=O)c2cnc(Nc3ccc(N4CCN(C)CC4)cc3)nc2n1-c1cccc(C(C)(C)O)n1 [AZD1775] (first compound max 10 µM, partner max 1 µM), the Bliss excess in [1] was 0.0123; in test [2] it was -0.0331; in test [3] it was -0.0087; in test [4] it was -0.0409; in test [5], 0.016; in test [6], 0.0366. Further, the Bliss excess in test [7] is 0.0822; in test [8], -0.0286; in [9], -0.0465; in test [10] it was -0.0019; in [11], -0.0399; in test [12], -0.0037. Besides, the Bliss excess in test [13] was -0.0074; in test [14], 0.0433; in test [15], -0.0194; in [16], -0.0066; in [17], -0.052; in test [18], -0.0682. In addition, the Bliss excess was 0.0324 in test [19] and -0.0047 in [20].

Consider `Cn1cnc2c(F)c(Nc3ccc(Br)cc3Cl)c(C(=O)NOCCO)cc21` [Selumetinib] + CC(C)n1c(=O)n(C)c2cnc3cc(F)c(-c4ccc(OCCCN5CCCCC5)nc4)cc3c21 [AZD1390] (first compound max 10 µM, 7x7, partner max 0.3 µM), for which the Bliss excess in test [1] was 0.003; in test [2] it was -0.0508; in [3], 0.0042; in [4] it was -0.059; in test [5] it was -0.033; in [6], -0.0157. Also, the Bliss excess in [7] was -0.0098; in test [8], -0.0045; in test [9] it was -0.034; in [10] it was -0.026; in test [11] it was 0.014; in test [12] it was -0.0384. In addition, the Bliss excess in test [13] was 0.0017; in test [14], -0.0185; in test [15], 0.0649; in [16], -0.0059; in test [17], -0.0044; in test [18], -0.0458. For the same molecule, the Bliss excess in test [19] was -0.0146; in test [20], -0.024.

For `Cn1cnc2c(F)c(Nc3ccc(Br)cc3Cl)c(C(=O)NOCCO)cc21` [Selumetinib] + CCN(CCO)CCCOc1ccc2c(Nc3cc(CC(=O)Nc4cccc(F)c4)[nH]n3)ncnc2c1 [AZD2811] (first compound max 10 µM, 7x7, partner max 1 µM), the Bliss excess in test [1] is 0.0685; in test [2], -0.0612; in test [3] it was 0.306; in [4], -0.0548; in test [5], -0.0654; in test [6] it was 0. In addition, the Bliss excess in [7] was 0.012; in test [8], -0.0067; in test [9] it was -0.03; in [10], -0.0212; in test [11], 0.0238; in test [12] it was -0.0324. Also, the Bliss excess in test [13] is -0.0054; in test [14], -0.0501; in test [15], -0.0215; in [16] it was -0.0209; in test [17], -0.0617; in [18], -0.059. The Bliss excess in [19] is -0.0274; in [20] it was -0.0093.
